Assay results: BigSolDB 2.1

CC1=NN(c2ccccc2)C(=O)C1
solubility (mole fraction) (in 1,4-dioxane, 288.15 K): 0.027
solubility (mole fraction) (in 1,4-dioxane, 293.15 K): 0.0341
solubility (mole fraction) (in 1,4-dioxane, 303.15 K): 0.0483
solubility (mole fraction) (in 1,4-dioxane, 313.15 K): 0.0669
solubility (mole fraction) (in 1,4-dioxane, 323.15 K): 0.1
solubility (mole fraction) (in acetone, 283.15 K): 0.0167
solubility (mole fraction) (in acetone, 293.15 K): 0.0254
solubility (mole fraction) (in acetone, 303.15 K): 0.0371
solubility (mole fraction) (in acetone, 313.15 K): 0.0563
solubility (mole fraction) (in acetone, 323.15 K): 0.108
solubility (mole fraction) (in acetonitrile, 283.15 K): 0.00788
solubility (mole fraction) (in acetonitrile, 293.15 K): 0.0126
solubility (mole fraction) (in acetonitrile, 303.15 K): 0.019
solubility (mole fraction) (in acetonitrile, 313.15 K): 0.0284
solubility (mole fraction) (in acetonitrile, 323.15 K): 0.0438
solubility (mole fraction) (in dichloromethane, 283.15 K): 0.0447
solubility (mole fraction) (in dichloromethane, 288.15 K): 0.0499
solubility (mole fraction) (in dichloromethane, 293.15 K): 0.0582
solubility (mole fraction) (in dichloromethane, 298.15 K): 0.0688
solubility (mole fraction) (in dichloromethane, 303.15 K): 0.0788
solubility (mole fraction) (in ethanol, 283.15 K): 0.0176
solubility (mole fraction) (in ethanol, 293.15 K): 0.024
solubility (mole fraction) (in ethanol, 303.15 K): 0.0339
solubility (mole fraction) (in ethanol, 313.15 K): 0.0457
solubility (mole fraction) (in ethanol, 323.15 K): 0.0597
solubility (mole fraction) (in ethyl acetate, 283.15 K): 0.0131
solubility (mole fraction) (in ethyl acetate, 293.15 K): 0.0159
solubility (mole fraction) (in ethyl acetate, 303.15 K): 0.0198
solubility (mole fraction) (in ethyl acetate, 313.15 K): 0.0335
solubility (mole fraction) (in ethyl acetate, 323.15 K): 0.0545
solubility (mole fraction) (in isobutanol, 283.15 K): 0.0153
solubility (mole fraction) (in isobutanol, 293.15 K): 0.0218
solubility (mole fraction) (in isobutanol, 303.15 K): 0.0288
solubility (mole fraction) (in isobutanol, 313.15 K): 0.0398
solubility (mole fraction) (in isobutanol, 323.15 K): 0.0573
solubility (mole fraction) (in isopropanol, 283.15 K): 0.0135
solubility (mole fraction) (in isopropanol, 293.15 K): 0.0186
solubility (mole fraction) (in isopropanol, 303.15 K): 0.0268
solubility (mole fraction) (in isopropanol, 313.15 K): 0.0356
solubility (mole fraction) (in isopropanol, 323.15 K): 0.0514
solubility (mole fraction) (in methanol, 283.15 K): 0.0194
solubility (mole fraction) (in methanol, 293.15 K): 0.0278
solubility (mole fraction) (in methanol, 303.15 K): 0.0402
solubility (mole fraction) (in methanol, 313.15 K): 0.0562
solubility (mole fraction) (in methanol, 323.15 K): 0.0833
solubility (mole fraction) (in n-butanol, 283.15 K): 0.0194
solubility (mole fraction) (in n-butanol, 293.15 K): 0.0272
solubility (mole fraction) (in n-butanol, 303.15 K): 0.0372
solubility (mole fraction) (in n-butanol, 313.15 K): 0.0504
solubility (mole fraction) (in n-butanol, 323.15 K): 0.0703
solubility (mole fraction) (in n-pentanol, 283.15 K): 0.0245
solubility (mole fraction) (in n-pentanol, 293.15 K): 0.0285
solubility (mole fraction) (in n-pentanol, 303.15 K): 0.0381
solubility (mole fraction) (in n-pentanol, 313.15 K): 0.05
solubility (mole fraction) (in n-pentanol, 323.15 K): 0.069
solubility (mole fraction) (in n-propanol, 283.15 K): 0.0149
solubility (mole fraction) (in n-propanol, 293.15 K): 0.025
solubility (mole fraction) (in n-propanol, 303.15 K): 0.0344
solubility (mole fraction) (in n-propanol, 313.15 K): 0.0494
solubility (mole fraction) (in n-propanol, 323.15 K): 0.0689
solubility (mole fraction) (in sec-butanol, 283.15 K): 0.0156
solubility (mole fraction) (in sec-butanol, 293.15 K): 0.0218
solubility (mole fraction) (in sec-butanol, 303.15 K): 0.0296
solubility (mole fraction) (in sec-butanol, 313.15 K): 0.0404
solubility (mole fraction) (in sec-butanol, 323.15 K): 0.0579
solubility (mole fraction) (in water, 283.15 K): 0.000153
solubility (mole fraction) (in water, 293.15 K): 0.000163
solubility (mole fraction) (in water, 303.15 K): 0.000174
solubility (mole fraction) (in water, 313.15 K): 0.000189
solubility (mole fraction) (in water, 323.15 K): 0.00021
